Results taken from ChEMBL document CHEMBL1154412, “In vitro activity of telavancin against gram-positive clinical isolates recently obtained in Europe” (Antimicrob Agents Chemother, 2007).
Converted amounts (≈) assume the structure as drawn.

What was measured:
Assay type in all cases: functional
Staphylococcus aureus [1] = test: Antimicrobial activity against methicillin-susceptible Staphylococcus aureus after 20 to 24 hrs by broth microdilution method
Staphylococcus aureus [2] = test: Antimicrobial activity against methicillin-resistant Staphylococcus aureus after 20 to 24 hrs by broth microdilution method
Staphylococcus [3] = test: Antimicrobial activity against methicillin-susceptible coagulase-negative Staphylococcus after 20 to 24 hrs by broth microdilution method
Staphylococcus [4] = test: Antimicrobial activity against methicillin-resistant coagulase-negative Staphylococcus after 20 to 24 hrs by broth microdilution method
Enterococcus faecalis [5] = test: Antimicrobial activity against vancomycin-susceptible Enterococcus faecalis after 20 to 24 hrs by broth microdilution method
Enterococcus faecalis [6] = test: Antimicrobial activity against vancomycin-resistant Enterococcus faecalis after 20 to 24 hrs by broth microdilution method
Enterococcus faecium [7] = test: Antibacterial activity against vancomycin-susceptible Enterococcus faecium after 20 to 24 hrs by broth microdilution method
Enterococcus faecium [8] = test: Antibacterial activity against vancomycin-resistant Enterococcus faecium after 20 to 24 hrs by broth microdilution method
Streptococcus pneumoniae [9] = test: Antibacterial activity against penicillin-susceptible Streptococcus pneumoniae after 20 to 24 hrs by broth microdilution method
Streptococcus pneumoniae [10] = test: Antibacterial activity against penicillin-intermediate Streptococcus pneumoniae after 20 to 24 hrs by broth microdilution method
Streptococcus pneumoniae [11] = test: Antibacterial activity against penicillin-resistant Streptococcus pneumoniae after 20 to 24 hrs by broth microdilution method
[12] = system: Streptococcus sp. 'group A'; test: Antimicrobial activity against Streptococcus group A after 20 to 24 hrs by broth microdilution method
[13] = system: Streptococcus sp. 'group B'; test: Antimicrobial activity against Streptococcus group B after 20 to 24 hrs by broth microdilution method
Streptococcus viridans = test: Antimicrobial activity against Streptococcus viridans after 20 to 24 hrs by broth microdilution method

Structure (SMILES): CCCCCCCCCC(=O)N[C@@H](Cc1c[nH]c2ccccc12)C(=O)N[C@H](CC(N)=O)C(=O)N[C@@H](CC(=O)O)C(=O)N[C@@H]1C(=O)NCC(=O)N[C@@H](CCCN)C(=O)N[C@@H](CC(=O)O)C(=O)N[C@H](C)C(=O)N[C@@H](CC(=O)O)C(=O)NCC(=O)N[C@H](CO)C(=O)N[C@@H]([C@H](C)CC(=O)O)C(=O)N[C@@H](CC(=O)c2ccccc2N)C(=O)O[C@@H]1C
- MIC50 (Staphylococcus aureus [1]): 0.25 µg/mL (≈ 0.154 µM)
- MIC90 (Staphylococcus aureus [1]): 0.5 µg/mL (≈ 0.309 µM)
- MIC50 (Staphylococcus aureus [2]): 0.5 µg/mL (≈ 0.309 µM)
- MIC90 (Staphylococcus aureus [2]): 0.5 µg/mL (≈ 0.309 µM)
- MIC50 (Staphylococcus [3]): 0.5 µg/mL (≈ 0.309 µM)
- MIC90 (Staphylococcus [3]): 1 µg/mL (≈ 0.617 µM)
- MIC50 (Staphylococcus [4]): 0.5 µg/mL (≈ 0.309 µM)
- MIC90 (Staphylococcus [4]): 0.5 µg/mL (≈ 0.309 µM)
- MIC50 (Enterococcus faecalis [5]): 1 µg/mL (≈ 0.617 µM)
- MIC90 (Enterococcus faecalis [5]): 2 µg/mL (≈ 1.23 µM)
- MIC (Enterococcus faecalis [6]): 0.5 µg/mL (≈ 0.309 µM)
- MIC50 (Enterococcus faecalis [6]): 0.5 µg/mL (≈ 0.309 µM)
- MIC90 (Enterococcus faecalis [6]): 2 µg/mL (≈ 1.23 µM)
- MIC50 (Enterococcus faecium [7]): 2 µg/mL (≈ 1.23 µM)
- MIC90 (Enterococcus faecium [7]): 4 µg/mL (≈ 2.47 µM)
- MIC50 (Enterococcus faecium [8]): 2 µg/mL (≈ 1.23 µM)
- MIC90 (Enterococcus faecium [8]): 2 µg/mL (≈ 1.23 µM)
- MIC50 (Streptococcus pneumoniae [9]): 0.12 µg/mL (≈ 0.074 µM)
- MIC90 (Streptococcus pneumoniae [9]): 0.25 µg/mL (≈ 0.154 µM)
- MIC50 (Streptococcus pneumoniae [10]): 0.12 µg/mL (≈ 0.074 µM)
- MIC90 (Streptococcus pneumoniae [10]): 0.25 µg/mL (≈ 0.154 µM)
- MIC50 (Streptococcus pneumoniae [11]): 0.12 µg/mL (≈ 0.074 µM)
- MIC90 (Streptococcus pneumoniae [11]): 0.12 µg/mL (≈ 0.074 µM)
- MIC50 [12]: 0.06 µg/mL (≈ 0.037 µM)
- MIC90 [12]: 0.06 µg/mL (≈ 0.037 µM)
- MIC50 [13]: 0.25 µg/mL (≈ 0.154 µM)
- MIC90 [13]: 0.25 µg/mL (≈ 0.154 µM)
- MIC50 (Streptococcus viridans): 0.5 µg/mL (≈ 0.309 µM)
- MIC90 (Streptococcus viridans): 1 µg/mL (≈ 0.617 µM)

Structure (SMILES): CC1(C)S[C@@H]2[C@H](NC(=O)[C@H](N)c3ccccc3)C(=O)N2[C@H]1C(=O)O [AMPICILLIN]
- MIC50 (Enterococcus faecalis [5]): 1 µg/mL (≈ 2.86 µM)
- MIC90 (Enterococcus faecalis [5]): 2 µg/mL (≈ 5.72 µM)
- MIC (Enterococcus faecalis [6]): 1 µg/mL (≈ 2.86 µM)
- MIC50 (Enterococcus faecalis [6]): 1 µg/mL (≈ 2.86 µM)
- MIC90 (Enterococcus faecalis [6]): 4 µg/mL (≈ 11.4 µM)
- MIC50 (Enterococcus faecium [7]): 64 µg/mL (≈ 183 µM)
- MIC90 (Enterococcus faecium [7]): 128 µg/mL (≈ 366 µM)
- MIC50 (Enterococcus faecium [8]): 128 µg/mL (≈ 366 µM)
- MIC90 (Enterococcus faecium [8]): 128 µg/mL (≈ 366 µM)

Structure (SMILES): CO/N=C(\C(=O)N[C@@H]1C(=O)N2C(C(=O)O)=C(CSc3nc(=O)c(O)nn3C)CS[C@H]12)c1csc(N)n1 [CEFTRIAXONE]
- MIC50 (Streptococcus pneumoniae [9]): 0.03 µg/mL (≈ 0.0541 µM)
- MIC90 (Streptococcus pneumoniae [9]): 0.03 µg/mL (≈ 0.0541 µM)
- MIC50 (Streptococcus pneumoniae [10]): 0.12 µg/mL (≈ 0.216 µM)
- MIC90 (Streptococcus pneumoniae [10]): 1 µg/mL (≈ 1.8 µM)
- MIC50 (Streptococcus pneumoniae [11]): 1 µg/mL (≈ 1.8 µM)
- MIC90 (Streptococcus pneumoniae [11]): 2 µg/mL (≈ 3.61 µM)
- MIC50 [12]: 0.03 µg/mL (≈ 0.0541 µM)
- MIC90 [12]: 0.03 µg/mL (≈ 0.0541 µM)
- MIC50 [13]: 0.06 µg/mL (≈ 0.108 µM)
- MIC90 [13]: 0.06 µg/mL (≈ 0.108 µM)
- MIC50 (Streptococcus viridans): 0.12 µg/mL (≈ 0.216 µM)
- MIC90 (Streptococcus viridans): 2 µg/mL (≈ 3.61 µM)

Structure (SMILES): CO/N=C(\C(=O)N[C@@H]1C(=O)N2C(C(=O)O)=C(COC(N)=O)CS[C@H]12)c1ccco1 [CEFUROXIME]
- MIC (Streptococcus pneumoniae [9]): ≤ 0.12 µg/mL
- MIC50 (Streptococcus pneumoniae [9]): ≤ 0.12 µg/mL
- MIC90 (Streptococcus pneumoniae [9]): ≤ 0.12 µg/mL
- MIC50 (Streptococcus pneumoniae [10]): 0.5 µg/mL (≈ 1.18 µM)
- MIC90 (Streptococcus pneumoniae [10]): 4 µg/mL (≈ 9.43 µM)
- MIC (Streptococcus pneumoniae [11]): ≥ 4 µg/mL
- MIC50 (Streptococcus pneumoniae [11]): > 4 µg/mL
- MIC90 (Streptococcus pneumoniae [11]): > 4 µg/mL
- MIC [12]: ≤ 0.12 µg/mL
- MIC50 [12]: ≤ 0.12 µg/mL
- MIC90 [12]: ≤ 0.12 µg/mL
- MIC [13]: ≤ 0.12 µg/mL
- MIC50 [13]: ≤ 0.12 µg/mL
- MIC90 [13]: ≤ 0.12 µg/mL
- MIC (Streptococcus viridans): ≤ 0.12 µg/mL
- MIC50 (Streptococcus viridans): ≤ 0.12 µg/mL
- MIC90 (Streptococcus viridans): 2 µg/mL (≈ 4.71 µM)

Structure (SMILES): O=C(O)c1cn(C2CC2)c2cc(N3CCNCC3)c(F)cc2c1=O [CIPROFLOXACIN]
- MIC50 (Staphylococcus aureus [1]): 0.25 µg/mL (≈ 0.754 µM)
- MIC90 (Staphylococcus aureus [1]): 1 µg/mL (≈ 3.02 µM)
- MIC50 (Staphylococcus aureus [2]): > 8 µg/mL
- MIC90 (Staphylococcus aureus [2]): > 8 µg/mL
- MIC50 (Staphylococcus [4]): 2 µg/mL (≈ 6.04 µM)
- MIC90 (Staphylococcus [4]): > 8 µg/mL
- MIC50 (Enterococcus faecalis [5]): 1 µg/mL (≈ 3.02 µM)
- MIC90 (Enterococcus faecalis [5]): > 32 µg/mL
- MIC50 (Enterococcus faecalis [6]): 1 µg/mL (≈ 3.02 µM)
- MIC50 (Enterococcus faecium [8]): 32 µg/mL (≈ 96.6 µM)

Structure (SMILES): CCC[C@@H]1C[C@@H](C(=O)N[C@@H]([C@H]2O[C@H](SC)[C@H](O)[C@@H](O)[C@H]2O)[C@H](C)Cl)N(C)C1 [CLINDAMYCIN]
- MIC (Staphylococcus aureus [1]): ≤ 0.5 µg/mL
- MIC50 (Staphylococcus aureus [1]): ≤ 0.5 µg/mL
- MIC90 (Staphylococcus aureus [1]): ≤ 0.5 µg/mL
- MIC90 (Staphylococcus aureus [2]): > 4 µg/mL
- MIC (Staphylococcus [3]): ≤ 0.5 µg/mL
- MIC50 (Staphylococcus [3]): ≤ 0.5 µg/mL
- MIC90 (Staphylococcus [3]): ≤ 0.5 µg/mL
- MIC90 (Staphylococcus [4]): > 4 µg/mL
- MIC50 (Streptococcus pneumoniae [9]): 0.06 µg/mL (≈ 0.141 µM)
- MIC90 (Streptococcus pneumoniae [9]): 0.06 µg/mL (≈ 0.141 µM)
- MIC50 (Streptococcus pneumoniae [10]): 0.06 µg/mL (≈ 0.141 µM)
- MIC90 (Streptococcus pneumoniae [10]): > 0.25 µg/mL
- MIC50 (Streptococcus pneumoniae [11]): > 0.25 µg/mL
- MIC [12]: ≤ 0.03 µg/mL
- MIC50 [12]: ≤ 0.03 µg/mL
- MIC90 [12]: 0.06 µg/mL (≈ 0.141 µM)
- MIC50 [13]: 0.06 µg/mL (≈ 0.141 µM)
- MIC90 [13]: 0.06 µg/mL (≈ 0.141 µM)
- MIC (Streptococcus viridans): ≤ 0.03 µg/mL
- MIC50 (Streptococcus viridans): ≤ 0.03 µg/mL
- MIC90 (Streptococcus viridans): > 0.25 µg/mL

Structure (SMILES): CC[C@H]1OC(=O)[C@H](C)[C@@H](O[C@H]2C[C@@](C)(OC)[C@@H](O)[C@H](C)O2)[C@H](C)[C@@H](O[C@@H]2O[C@H](C)C[C@H](N(C)C)[C@H]2O)[C@](C)(O)C[C@@H](C)C(=O)[C@H](C)[C@@H](O)[C@]1(C)O [ERYTHROMYCIN]
- MIC50 (Staphylococcus aureus [1]): 0.5 µg/mL (≈ 0.681 µM)
- MIC90 (Staphylococcus aureus [1]): > 16 µg/mL
- MIC50 (Staphylococcus aureus [2]): > 16 µg/mL
- MIC50 (Staphylococcus [3]): 0.25 µg/mL (≈ 0.341 µM)
- MIC90 (Staphylococcus [3]): > 16 µg/mL
- MIC50 (Staphylococcus [4]): > 16 µg/mL
- MIC50 (Streptococcus pneumoniae [9]): 0.03 µg/mL (≈ 0.0409 µM)
- MIC90 (Streptococcus pneumoniae [9]): 0.06 µg/mL (≈ 0.0818 µM)
- MIC50 (Streptococcus pneumoniae [10]): 0.03 µg/mL (≈ 0.0409 µM)
- MIC90 (Streptococcus pneumoniae [10]): > 1 µg/mL
- MIC50 (Streptococcus pneumoniae [11]): > 1 µg/mL
- MIC50 [12]: 0.03 µg/mL (≈ 0.0409 µM)
- MIC90 [12]: 0.06 µg/mL (≈ 0.0818 µM)
- MIC50 [13]: 0.03 µg/mL (≈ 0.0409 µM)
- MIC90 [13]: 0.5 µg/mL (≈ 0.681 µM)
- MIC50 (Streptococcus viridans): 0.03 µg/mL (≈ 0.0409 µM)
- MIC90 (Streptococcus viridans): > 1 µg/mL
